# Source: US9326973B2, “Hepatitis C virus inhibitors” (priority 2012, dated 2016)
# Test system: HCV replicon, genotype-1a variant with glutamine 30 changed to glutamate in the NS5A protein
# Experiment: microbe, parasite or virus in culture
# Type: cell-based, HCV genotype 1a
# Conditions: HCV replicon genotype 1a Q30E (Q→E) variant; test compound titrated with an NS5A-targeting compound (BMS-790052 fixed at 200 nM); ranking of synergist activity
# In short: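 Synergy was assessed by combining several fixed amounts of an NS5A-targeting compound with a titration of the second compound of interest.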
row,Structure (SMILES),Fold-Synergistic 1a (Q30E) [fold]
1,CC(C)CC(=O)N[C@H](c1ncc(-c2ccc(C#Cc3ccc(-c4cnc([C@@H](NC(=O)CC(C)C)C(C)C)[nH]4)cc3)cc2)[nH]1)C(C)C [Compound N-6],>10
2,CC(C)N(C(=O)OC1(C(=O)N[C@H](c2nc(-c3ccc(-c4ccc(-c5c[nH]c([C@@H](NC(=O)C6(OC(=O)N(C(C)C)C(C)C)CC6)C6(C)CC6)n5)cc4)cc3)c[nH]2)C2(C)CC2)CC1)C(C)C [Compound L-39],>100
3,O=C(Cc1ccccn1)N1CCC[C@H]1c1ncc(-c2ccc(-c3ccc(-c4cnc([C@@H]5CCCN5C(=O)Cc5ccccn5)[nH]4)cc3)cc2)[nH]1 [Compound S-149],<10
4,CC(CO)(CO)C(=O)N[C@H](c1nc(-c2ccc(-c3ccc(-c4c[nH]c([C@@H](NC(=O)C(C)(CO)CO)C(C)(C)C)n4)cc3)cc2)c[nH]1)C(C)(C)C [Compound W-125],>100
5,CC(C)(C)OC(=O)N1C[C@H](O)C[C@H]1C(=O)N[C@H](c1nc(-c2ccc(-c3ccc(-c4c[nH]c([C@@H](NC(=O)[C@@H]5C[C@@H](O)CN5C(=O)OC(C)(C)C)C(C)(C)C)n4)cc3)cc2)c[nH]1)C(C)(C)C [Compound W-96],>100
6,CC1([C@H](NC(=O)[C@H]2C[C@@H]3CC(F)(F)C[C@@H]3C2)c2nc(-c3ccc(-c4ccc(-c5c[nH]c([C@@H](NC(=O)[C@H]6C[C@@H]7CC(F)(F)C[C@@H]7C6)C6(C)CC6)n5)cc4)cc3)c[nH]2)CC1 [Compound P-140],>100
7,CC(C)(C)[C@H](NC(=O)C(F)(F)C1CCCCO1)c1nc(-c2ccc(-c3ccc(-c4c[nH]c([C@@H](NC(=O)C(F)(F)C5CCCCO5)C(C)(C)C)n4)cc3)cc2)c[nH]1 (stereo partly shown) [Compound P-166],>100
8,COc1cccc(C2(C(=O)N[C@H](c3nc(-c4ccc(-c5ccc(-c6c[nH]c([C@@H](NC(=O)C7(c8cccc(OC)c8)CCC(C)CC7)C(C)(C)C)n6)cc5)cc4)c[nH]3)C(C)(C)C)CCC(C)CC2)c1 (stereo partly shown) [Compound S-289],>100
9,CC(C)(C)OC(=O)N1CCC(C(=O)N[C@H](c2nc(-c3ccc(-c4ccc(-c5c[nH]c([C@@H](NC(=O)C6CCN(C(=O)OC(C)(C)C)CC6)C(C)(C)C)n5)cc4)cc3)c[nH]2)C(C)(C)C)CC1 [Compound S-264],>100
10,CC(C)(C)[C@H](NC(=O)C(=O)N1CCC(C(F)(F)F)CC1)c1nc(-c2ccc(-c3ccc(-c4c[nH]c([C@@H](NC(=O)C(=O)N5CCC(C(F)(F)F)CC5)C(C)(C)C)n4)cc3)cc2)c[nH]1 [Compound W-60],>100
11,N#CCC(=O)N1CCC[C@H]1c1ncc(-c2ccc(-c3ccc(-c4cnc([C@@H]5CCCN5C(=O)CC#N)[nH]4)cc3)cc2)[nH]1 [Compound S-171],<10
12,CN1CCC(C(=O)N[C@H](c2nc(-c3ccc(-c4ccc(-c5c[nH]c([C@@H](NC(=O)C6CCN(C)CC6)C(C)(C)C)n5)cc4)cc3)c[nH]2)C(C)(C)C)CC1 [Compound S-268],>10
13,CC(C)N(C(=O)C(=O)N[C@H](c1nc(-c2ccc(-c3ccc(-c4c[nH]c([C@@H](NC(=O)C(=O)N(C(C)C)C5CC5)C5(C)CC5)n4)cc3)cc2)c[nH]1)C1(C)CC1)C1CC1 [Compound W-58],>100
14,CCN(CC(F)(F)F)C(=O)C(=O)N[C@H](c1nc(-c2ccc(-c3ccc(-c4c[nH]c([C@@H](NC(=O)C(=O)N(CC)CC(F)(F)F)C(C)C)n4)cc3)cc2)c[nH]1)C(C)C [Compound W-56],>100
15,CCCC[C@@H](CC(=O)OC(C)(C)C)C(=O)N[C@H](c1nc(-c2ccc(-c3ccc(-c4c[nH]c([C@@H](NC(=O)[C@@H](CCCC)CC(=O)OC(C)(C)C)C(C)(C)C)n4)cc3)cc2)c[nH]1)C(C)(C)C [Compound S-260],>100
16,O=C(c1cccc(-c2ccccc2)c1)N1CCC[C@H]1c1ncc(-c2ccc(-c3ccc(-c4cnc([C@@H]5CCCN5C(=O)c5cccc(-c6ccccc6)c5)[nH]4)cc3)cc2)[nH]1 [Compound S-128],>10
17,CC(C)[C@H](NC(=O)[C@@]1(C)CC(F)(F)CCO1)c1nc(-c2ccc(-c3ccc(-c4c[nH]c([C@@H](NC(=O)[C@@]5(C)CC(F)(F)CCO5)C(C)C)n4)cc3)cc2)c[nH]1 [Compound Y-79],>100
18,CC(C)[C@H](NC(=O)C1(C)CCCCC1)c1nc(-c2ccc3c(c2)Cc2cc(-c4c[nH]c([C@@H](NC(=O)C5(C)CCCCC5)C(C)C)n4)ccc2-3)c[nH]1 [Compound N-69],>100
19,Cc1cc(-c2ccc(-c3c[nH]c([C@@H](NC(=O)C4(C)CCCC4)C(C)C)n3)cc2)ccc1-c1c[nH]c([C@@H](NC(=O)C2(C)CCCC2)C(C)C)n1 [Compound N-80],>100
20,CC(C)(C)[C@H](NC(=O)C1(F)CCCCC1)c1nc(-c2ccc(-c3ccc(-c4c[nH]c([C@@H](NC(=O)C5(F)CCCCC5)C(C)(C)C)n4)cc3)cc2)c[nH]1 [Compound S-286],>100

row,Structure (SMILES),Fold-Synergistic 1a (Q30E) [fold]
1,CC(C)(C)OC(=O)N1[C@@H]2CC2C[C@H]1C(=O)N[C@H](c1nc(-c2ccc(-c3ccc(-c4c[nH]c([C@@H](NC(=O)[C@@H]5CC6C[C@H]6N5C(=O)OC(C)(C)C)C(C)(C)C)n4)cc3)cc2)c[nH]1)C(C)(C)C (stereo partly shown) [Compound W-67],>100
2,CC(C)(C)[C@H](NC(=O)C(=O)N1CC[C@H](F)C1)c1nc(-c2ccc(-c3ccc(-c4c[nH]c([C@@H](NC(=O)C(=O)N5CC[C@H](F)C5)C(C)(C)C)n4)cc3)cc2)c[nH]1 [Compound W-27],>100
3,O=C(c1cnc2ccccc2c1)N1CCC[C@H]1c1ncc(-c2ccc(-c3ccc(-c4cnc([C@@H]5CCCN5C(=O)c5cnc6ccccc6c5)[nH]4)cc3)cc2)[nH]1 [Compound S-124],>10
4,CC1(C)CC(C(=O)N[C@H](c2nc(-c3ccc(-c4ccc(-c5c[nH]c([C@@H](NC(=O)C6CC(C)(C)C6)C(C)(C)C)n5)cc4)cc3)c[nH]2)C(C)(C)C)C1 [Compound L-53],>100
5,CC(C)(C(=O)NCC(F)(F)F)C(=O)N[C@H](c1nc(-c2ccc(-c3ccc(-c4c[nH]c([C@@H](NC(=O)C(C)(C)C(=O)NCC(F)(F)F)C(C)(C)C)n4)cc3)cc2)c[nH]1)C(C)(C)C [Compound W-139],>100
6,CC(C)(C)[C@H](NC(=O)C1CCOCC1)c1nc(-c2ccc(-c3ccc(-c4c[nH]c([C@@H](NC(=O)C5CCOCC5)C(C)(C)C)n4)cc3)cc2)c[nH]1 [Compound W-123],>100
7,CC(C)(C)NC(C)(C)C(=O)N[C@H](c1nc(-c2ccc(-c3ccc(-c4c[nH]c([C@@H](NC(=O)C(C)(C)NC(C)(C)C)C(C)(C)C)n4)cc3)cc2)c[nH]1)C(C)(C)C [Compound P-175],>100
8,CC1(C)CC(C(=O)N[C@H](c2nc(-c3ccc(-c4ccc(-c5c[nH]c([C@@H](NC(=O)C6CCOC(C)(C)C6)C(C)(C)C)n5)cc4)cc3)c[nH]2)C(C)(C)C)CCO1 (stereo partly shown) [Compound W-122],>100
9,CC1([C@H](NC(=O)C2(N3CCC(F)(F)CC3)COC2)c2nc(-c3ccc(-c4ccc(-c5c[nH]c([C@@H](NC(=O)C6(N7CCC(F)(F)CC7)COC6)C6(C)CC6)n5)cc4)cc3)c[nH]2)CC1 [Compound W-62],>100
10,O=C(c1cnccc1C(F)(F)F)N1CCC[C@H]1c1ncc(-c2ccc(-c3ccc(-c4cnc([C@@H]5CCCN5C(=O)c5cnccc5C(F)(F)F)[nH]4)cc3)cc2)[nH]1 [Compound S-134],<10
11,CC(C)(C)OC(=O)N1C[C@@H](F)C[C@H]1C(=O)N[C@H](c1nc(-c2ccc(-c3ccc(-c4c[nH]c([C@@H](NC(=O)[C@@H]5C[C@H](F)CN5C(=O)OC(C)(C)C)C(C)(C)C)n4)cc3)cc2)c[nH]1)C(C)(C)C [Compound W-83],>100
12,COC(C)(C)C(=O)N[C@H](c1nc(-c2ccc(-c3ccc(-c4c[nH]c([C@@H](NC(=O)C(C)(C)OC)C(C)C)n4)cc3F)cc2)c[nH]1)C(C)C [Compound N-96],>100
13,Cn1cc(C(=O)N2CCC[C@H]2c2ncc(-c3ccc(-c4ccc(-c5cnc([C@@H]6CCCN6C(=O)c6cn(C)c7ccccc67)[nH]5)cc4)cc3)[nH]2)c2ccccc21 [Compound S-142],>10
14,O=C(c1csc(-c2cccnc2)n1)N1CCC[C@H]1c1ncc(-c2ccc(-c3ccc(-c4cnc([C@@H]5CCCN5C(=O)c5csc(-c6cccnc6)n5)[nH]4)cc3)cc2)[nH]1 [Compound S-130],>10
15,CC(C)(C)C(=O)N[C@H](c1nc(-c2ccc(-c3cnc(-c4c[nH]c([C@@H](NC(=O)C(C)(C)C)C(C)(C)C)n4)cn3)cc2)c[nH]1)C(C)(C)C [Compound N-105],>100
16,CC(C)(C)[C@H](NC(=O)C1CC(=O)c2ccccc2C1)c1nc(-c2ccc(-c3ccc(-c4c[nH]c([C@@H](NC(=O)C5CC(=O)c6ccccc6C5)C(C)(C)C)n4)cc3)cc2)c[nH]1 (stereo partly shown) [Compound S-256],>100
17,CC(C)(C)OC(=O)NC1CCC(C(=O)N[C@H](c2nc(-c3ccc(-c4ccc(-c5c[nH]c([C@@H](NC(=O)C6CCC(NC(=O)OC(C)(C)C)CC6)C(C)(C)C)n5)cc4)cc3)c[nH]2)C(C)(C)C)CC1 (stereo partly shown) [Compound S-270],>100
18,CC(C)(C)[C@H](NC(=O)[C@@H]1CCCCN1CC(F)(F)F)c1nc(-c2ccc(-c3ccc(-c4c[nH]c([C@@H](NC(=O)[C@@H]5CCCCN5CC(F)(F)F)C(C)(C)C)n4)cc3)cc2)c[nH]1 [Compound L-51],>100
19,CC(C)(Br)C(=O)N[C@H](c1nc(-c2ccc(-c3ccc(-c4c[nH]c([C@@H](NC(=O)C(C)(C)Br)C(C)(C)C)n4)cc3)cc2)c[nH]1)C(C)(C)C [Compound W-149],>100
20,CC(C)(C)[C@H](NC(=O)[C@@H]1CCC[C@@H]1O)c1nc(-c2ccc(-c3ccc(-c4c[nH]c([C@@H](NC(=O)[C@@H]5CCC[C@@H]5O)C(C)(C)C)n4)cc3)cc2)c[nH]1 [Compound P-171],>100
